Patent US20260124170A1, “PHARMACEUTICAL COMPOSITION COMPRISING METABOLITE OF ENAVOGLIFLOZIN, AND USE THEREOF” (DAEWOONG PHARMACEUTICAL CO., LTD., priority 2022, published 2026)

Experiments:
[1] = target: T1, SGLT2 (Homo sapiens, UniProt P31639); assay: Inhibition of [14C]AMG uptake in SGLT2-overexpressing CHO cells; type: cell-based; conditions: CHO-SGLT2 cells, 10 μM [14C]AMG, 2 h, 37° C.
T1 construct: expressed in transfected cells
T1 sequence (P31639 1-672): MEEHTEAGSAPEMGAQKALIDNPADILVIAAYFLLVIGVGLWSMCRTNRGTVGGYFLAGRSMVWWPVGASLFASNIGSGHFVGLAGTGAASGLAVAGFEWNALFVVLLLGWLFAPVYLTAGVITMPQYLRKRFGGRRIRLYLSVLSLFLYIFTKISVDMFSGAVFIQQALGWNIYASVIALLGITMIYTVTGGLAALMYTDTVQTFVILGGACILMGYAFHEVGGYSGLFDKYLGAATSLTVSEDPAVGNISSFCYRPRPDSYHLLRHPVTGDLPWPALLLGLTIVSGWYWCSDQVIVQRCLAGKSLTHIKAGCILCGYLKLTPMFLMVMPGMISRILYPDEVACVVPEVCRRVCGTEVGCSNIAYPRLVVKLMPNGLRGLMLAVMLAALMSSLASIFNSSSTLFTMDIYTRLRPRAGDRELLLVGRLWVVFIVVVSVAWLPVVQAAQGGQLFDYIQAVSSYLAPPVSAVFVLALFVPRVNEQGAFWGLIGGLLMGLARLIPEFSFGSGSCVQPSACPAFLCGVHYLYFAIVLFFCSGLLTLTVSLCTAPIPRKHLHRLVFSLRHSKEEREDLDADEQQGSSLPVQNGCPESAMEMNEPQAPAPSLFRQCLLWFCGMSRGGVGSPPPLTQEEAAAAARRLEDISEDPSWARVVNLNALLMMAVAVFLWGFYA
Procedure: The evaluation was performed in the same manner as the evaluation of SGLT1 inhibition, except that an SGLT2-overexpressing cell line (CHO-SGLT2 stable cells) was used, and the inhibitory evaluation substances described below were used.

[2] = target: T2, SGLT1 (Homo sapiens, UniProt P13866); assay: Change in SGLT1 inhibition according to drug pretreatment time (CHO-SGLT1); type: cell-based; conditions: pretreatment 0, 1, 2 h; one-way ANOVA
T2 construct: expressed in transfected cells
T2 sequence (P13866 1-664): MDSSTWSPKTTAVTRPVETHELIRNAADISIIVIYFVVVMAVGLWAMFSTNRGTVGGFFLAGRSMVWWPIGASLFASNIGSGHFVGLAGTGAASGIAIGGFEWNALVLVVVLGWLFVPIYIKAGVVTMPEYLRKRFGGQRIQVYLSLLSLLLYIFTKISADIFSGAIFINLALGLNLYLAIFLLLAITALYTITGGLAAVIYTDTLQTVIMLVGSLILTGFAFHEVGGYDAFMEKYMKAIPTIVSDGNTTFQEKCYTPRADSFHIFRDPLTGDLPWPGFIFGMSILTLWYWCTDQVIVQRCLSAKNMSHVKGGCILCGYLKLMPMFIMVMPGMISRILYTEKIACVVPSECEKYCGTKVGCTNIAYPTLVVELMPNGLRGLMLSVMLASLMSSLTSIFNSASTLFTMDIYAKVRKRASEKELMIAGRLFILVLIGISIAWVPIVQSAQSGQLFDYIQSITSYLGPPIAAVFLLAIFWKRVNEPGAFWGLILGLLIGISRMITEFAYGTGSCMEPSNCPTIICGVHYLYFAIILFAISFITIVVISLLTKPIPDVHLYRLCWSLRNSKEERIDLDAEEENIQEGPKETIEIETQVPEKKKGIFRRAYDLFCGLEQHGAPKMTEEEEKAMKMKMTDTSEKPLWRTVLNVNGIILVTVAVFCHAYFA
Excerpt: (§1) All data values are expressed as the mean±SD of […].

[3] = target: T2, SGLT1; assay: SGLT1 inhibition with varied substrate AMG concentration (Dixon / L-B plot); type: cell-based; conditions: CHO-SGLT1, varied AMG concentration
Procedure: (§3) From these, the inhibition mechanism was confirmed, and the inhibition constant was calculated.

[4] = target: T1, SGLT2; assay: Change in SGLT2 inhibition according to drug pretreatment time (CHO-SGLT2); type: cell-based; conditions: for IC50: CHO-SGLT2
Excerpt: as §1

[5] = target: T1, SGLT2; assay: SGLT2 inhibition with varied substrate AMG concentration (Dixon / L-B plot); type: cell-based
Procedure: as §3

[6] = tested on: STZ-induced type 1 diabetic rats; assay: Oral glucose tolerance test in type 1 diabetic rat model; type: in vivo; conditions: STZ rats, 1 mg/kg, glucose 2 g/kg oral
Procedure: (§2) STZ was administered to Sprague Dawley (SD) male 5-week-old rats on day 0 (G2 to G7, excluding G1), and non-fasting blood glucose levels were measured on day 3 to determine whether type 1 diabetes was induced. On day 7, the experimental substances were administered to each group, and blood and urine samples were collected at 6 h, 24 h, 48 h, and 72 h to measure non-fasting blood glucose levels. On day 14 of the experiment, the experimental animals were fasted for 16 h, and on day 15, 2 g/kg of glucose solution was orally administered after the experimental substances were administered. Thereafter, blood glucose levels were measured at 15, 30, 60, 90, and 120 minutes after glucose administration. After blood collection, the serum was separated, and the IL-6 inflammatory response was evaluated using an interleukin-6 (IL-6) enzyme-linked immunosorbent assay (ELISA) kit.

[7] = tested on: interleukin-6 (IL-6); assay: Serum IL-6 ELISA in type 1 diabetic rat model; type: in vivo; conditions: STZ rats, 6, 24, 48, 72 hours after administration
Procedure: as §2

IC50 [1]	Inhibition mechanism, SGLT1 [3]	IC50 ([4]; IC50 according to pretreatment time (nM), SGLT2, 1 h, 1 h pretreatment in sodium-free buffer)	IC50 ([4]; IC50 according to pretreatment time (nM), SGLT2, 2 h, 2 h pretreatment in sodium-free buffer)	IC50 ([4]; no pretreatment, read-out: IC50 according to pretreatment time (nM), SGLT2, 0 h)	Change in SGLT2 inhibition as exposure time increased ([4]; pretreatment 0, 1, 2 h, one-way ANOVA)	Inhibition mechanism, SGLT2 ([5]; CHO-SGLT2, varied AMG concentration)	Ki ([5]; from slope of L-B plot, CHO-SGLT2)	SMILES	Change in SGLT1 inhibition as exposure time increased [2]	Blood glucose level in OGTT [6]	Change in IL-6 level [7]
6.65 ± 2.92 nM	Competitive inhibition	6.67 ± 1.29 nM	7.35 ± 0.82 nM	7.2 ± 2.33 nM	did not increase or significantly change	Competitive inhibition	5.15 nM	OC[C@H]1O[C@@H](c2ccc(Cl)c(Cc3ccc(O[C@H]4CCOC4)cc3)c2)[C@H](O)[C@@H](O)[C@@H]1O [Empagliflozin]	did not show any significant change or increase in inhibition	–	–
–	–	–	–	–	–	–	–	CCOc1ccc(Cc2cc([C@@H]3O[C@H](SC)[C@@H](O)[C@H](O)[C@H]3O)ccc2Cl)cc1 [Sotagliflozin]	–	lowering of the blood glucose level was observed	slight decrease
